Measured values as given in article PMC9687610, “Adenosine-Mimicking Derivatives of 3-Aminopyrazine-2-Carboxamide: Towards Inhibitors of Prolyl-tRNA Synthetase with Antimycobacterial Activity” (Biomolecules, 2022).
In brackets after ≈: the same amount, converted by molar mass. Like-named read-outs stand apart in the source and are kept apart here.

What was measured:
[1] = test system: M. aurum DSM 43999 (ATCC 23366); assay: Microplate Alamar Blue Assay (MABA), M. aurum; assay type: cell-based; conditions: Mycolicibacterium aurum, read-out: M. aurum MIC
[2] = test system: Acinetobacter baumannii DSM 30007 (ATCC 19606); assay: Antibacterial microdilution broth (EUCAST), ACI; assay type: cell-based; conditions: Acinetobacter baumannii, read-out: ACI MIC
[3] = test system: Candida albicans CCM 8320 (ATCC 24433); assay: Antifungal microdilution broth (EUCAST), CA; assay type: cell-based; conditions: Candida albicans, read-out: CA MIC
[4] = test system: Staphylococcus aureus subsp. aureus methicillin-resistant (MRSA) CCM 4750 (ATCC 43300); assay: Antibacterial microdilution broth (EUCAST), MRSA; assay type: cell-based; conditions: Staphylococcus aureus, read-out: MRSA MIC
[5] = test system: Mycobacterium tuberculosis H37Ra ITM-M006710 (ATCC 9431); assay: Microplate Alamar Blue Assay (MABA), Mtb H37Ra; assay type: cell-based; conditions: Mycobacterium tuberculosis, 120 h
[6] = test system: Escherichia coli CCM 3954 (ATCC 25922); assay: Antibacterial microdilution broth (EUCAST), EC; assay type: cell-based; conditions: Escherichia coli, read-out: EC MIC
[7] = test system: Klebsiella pneumoniae CCM 4415 (ATCC 10031); assay: Antibacterial microdilution broth (EUCAST), KP; conditions: read after 24 h
[8] = test system: Aspergillus fumigatus ATCC 204305; assay: Antifungal microdilution broth (EUCAST), AF; assay type: cell-based; conditions: Aspergillus fumigatus, read-out: AF MIC
[9] = test system: Candida tropicalis CCM 8264 (ATCC 750); assay: Antifungal microdilution broth (EUCAST), CT; assay type: cell-based; conditions: Candida tropicalis, read-out: CT MIC
[10] = test system: Staphylococcus aureus subsp. aureus CCM 4223 (ATCC 29213); assay: Antibacterial microdilution broth (EUCAST), SA; assay type: cell-based; conditions: Staphylococcus aureus, read-out: SA MIC
[11] = test system: Candida krusei CCM 8271 (ATCC 6258); assay: Antifungal microdilution broth (EUCAST), CK; assay type: cell-based; conditions: Pichia kudriavzevii, read-out: CK MIC
[12] = test system: Mycobacterium smegmatis DSM 43465 (ATCC 607); assay: Microplate Alamar Blue Assay (MABA), M. smegmatis; assay type: cell-based; conditions: Mycolicibacterium smegmatis, read-out: M. smegmatis MIC
[13] = test system: Staphylococcus epidermidis CCM 4418 (ATCC 12228); assay: Antibacterial microdilution broth (EUCAST), SE; assay type: cell-based; conditions: read-out: SE MIC
[14] = test system: Trichophyton interdigitale CCM 8377 (ATCC 9533); assay: Antifungal microdilution broth (EUCAST), TI; assay type: cell-based; conditions: Trichophyton interdigitale, 72 h, read-out: TI MIC
[15] = test system: Lichtheimia corymbifera CCM 8077; assay: Antifungal microdilution broth (EUCAST), LC; assay type: cell-based; conditions: Lichtheimia corymbifera, read-out: LC MIC
[16] = test system: Enterococcus faecalis CCM 4224 (ATCC 29212); assay: Antibacterial microdilution broth (EUCAST), EF; assay type: cell-based; conditions: Enterococcus faecalis, read-out: EF MIC
[17] = test system: Pseudomonas aeruginosa CCM 3955 (ATCC 27853); assay: Antibacterial microdilution broth (EUCAST), PA; assay type: cell-based; conditions: Pseudomonas aeruginosa, read-out: PA MIC
[18] = test system: Aspergillus flavus CCM 8363; assay: Antifungal microdilution broth (EUCAST), AFla; assay type: cell-based; conditions: Aspergillus flavus, read-out: AFla MIC
[19] = test system: Candida parapsilosis CCM 8260 (ATCC 22019); assay: Antifungal microdilution broth (EUCAST), CP; assay type: cell-based; conditions: Lodderomyces parapsilosis, read-out: CP MIC
[20] = test system: HepG2 human hepatocellular carcinoma cells; assay: In vitro HepG2 cytotoxicity (CellTiter 96); conditions: Homo sapiens, HepG2, 24 h, read-out: HepG2 IC50, 24 h incubation; * limit = highest evaluated concentration (precipitation in medium); ** over the 1000 µM limit
[21] = pH 6.6, MABA, Middlebrook 7H9 broth pH 6.6, resazurin after 120 h, read-out: Mtb H37Ra MIC

Structure (SMILES) | MIC ([1]; MABA, resazurin after 72 h) [µg/mL] | MIC ([2]; read after 24 h) [µM] | MIC ([3]; read after 24 h) [µM] | MIC ([4]; read after 24 h) [µM] | MIC [5, 21] [µg/mL] | MIC ([6]; read after 24 h) [µM] | KP MIC [7] [µM] | MIC ([8]; ATCC204305, read after 24 h) [µM] | MIC ([9]; read after 24 h) [µM] | MIC ([10]; read after 24 h) [µM] | MIC ([11]; read after 24 h) [µM] | MIC ([12]; MABA, resazurin after 48 h) [µg/mL] | MIC ([13]; read after 24 h) [µM] | MIC [14] [µM] | MIC ([15]; CCM8077, read after 24 h) [µM] | melting point [°C] | MIC ([16]; read after 24 h) [µM] | MIC ([17]; read after 24 h) [µM] | MIC ([18]; CCM8363, read after 24 h) [µM] | MIC ([19]; read after 24 h) [µM] | further results
Cc1ccccc1C(=O)Nc1nccnc1C(N)=O [Compound 2] | ≥ 500 | > 500 | > 125 | > 500 | ≥ 500 | > 500 | > 500 | > 125 | > 125 | > 500 | > 125 | ≥ 500 | > 500 | > 125 | > 125 | 234.4 to 235.9 | > 500 | > 500 | > 125 | > 125 | IC50 [20]: 422 µM
COC(=O)c1nccnc1NC(=O)c1ccc(C)cc1 [Compound 4e] | 250 (≈ 922 µM) | > 500 | > 500 | > 500 | 250 (≈ 922 µM) | > 500 | > 500 | > 500 | > 500 | > 500 | > 500 | 62.5 (≈ 230 µM) | > 500 | > 500 | > 500 | 158.9 to 161.2 | > 500 | > 500 | > 500 | > 500 | 
COC(=O)c1nccnc1NC(=O)c1ccc(OC)cc1 [Compound 9e] | ≥ 500 | > 500 | > 500 | > 500 | ≥ 500 | > 500 | > 500 | > 500 | > 500 | > 500 | > 500 | ≥ 500 | > 500 | > 500 | > 500 | 144.5 to 145 | > 500 | > 500 | > 500 | > 500 | 
COC(=O)c1nccnc1NC(=O)c1ccccc1F [Compound 10e] | ≥ 500 |  |  |  | 250 (≈ 908 µM) |  |  |  |  |  |  | ≥ 500 |  |  |  | 123.2 to 125.4 |  |  |  |  | 
COC(=O)c1nccnc1NC(=O)c1cccc(F)c1 [Compound 11e] | ≥ 500 |  |  |  | 250 (≈ 908 µM) |  |  |  |  |  |  | ≥ 500 |  |  |  | 135.5 to 136.3 |  |  |  |  | 
COC(=O)c1nccnc1NC(=O)c1ccc(F)cc1 [Compound 12e] | ≥ 500 |  |  |  | ≥ 500 |  |  |  |  |  |  | ≥ 500 |  |  |  | 151.1 to 153.6 |  |  |  |  | 
COC(=O)c1nccnc1NC(=O)c1ccccc1Cl [Compound 13e] | ≥ 500 |  |  |  | ≥ 500 |  |  |  |  |  |  | 250 (≈ 857 µM) |  |  |  | 114.5 to 115.6 |  |  |  |  | 
COC(=O)c1nccnc1NC(=O)c1cccc(Cl)c1 [Compound 14e] | 250 (≈ 857 µM) | > 500 | > 500 | > 500 | 250 (≈ 857 µM) | > 500 | > 500 | > 500 | > 500 | > 500 | > 500 | 125 (≈ 429 µM) | > 500 | > 500 | > 500 | 146.3 to 147.1 | > 500 | > 500 | > 500 | > 500 | 
COC(=O)c1nccnc1NC(=O)c1ccccc1Br [Compound 16e] | ≥ 500 | > 500 | > 500 | > 500 | 125 (≈ 372 µM) | > 500 | > 500 | > 500 | > 500 | > 500 | > 500 | ≥ 500 | > 500 | > 500 | > 500 | 168.4 to 169.2 | > 500 | > 500 | > 500 | > 500 | 
COC(=O)c1nccnc1NC(=O)c1cccc(Br)c1 [Compound 17e] | ≥ 500 | > 500 | > 500 | > 500 | ≥ 500 | > 500 | > 500 | > 500 | > 500 | > 500 | > 500 | ≥ 500 | > 500 | > 500 | > 500 | 123.3 to 125.2 | > 500 | > 500 | > 500 | > 500 | 
COC(=O)c1nccnc1NC(=O)c1ccc(Br)cc1 [Compound 18e] | ≥ 500 | > 500 | > 500 | > 500 | ≥ 500 | > 500 | > 500 | > 500 | > 500 | > 500 | > 500 | ≥ 500 | > 500 | > 500 | > 500 | 195.1 to 197 | > 500 | > 500 | > 500 | > 500 | 
NC(=O)c1nccnc1NC(=O)c1ccccc1O [Compound 22] | ≥ 500 |  |  |  |  |  |  |  |  |  |  | ≥ 500 |  |  |  | > 300 |  |  |  |  | MIC ([5]; pH 6.6, read-out: Mtb H37Ra MIC, MABA, Middlebrook 7H9 broth pH 6.6, resazurin after 120 h): ≥ 500 µg/mL; IC50 [20]: > 250 µM
NC(=O)c1nccnc1NC(=O)c1ccc(O)cc1 [Compound 23] | ≥ 500 |  |  |  | ≥ 500 |  |  |  |  |  |  | ≥ 500 |  |  |  | 243.7 to 245.1 |  |  |  |  | IC50 [20]: > 500 µM
NC(=O)c1nccnc1NC(=O)c1ccc(N)cc1 [Compound 24, 3-(4-aminobenzamido)pyrazine-2-carboxamide] | ≥ 250 |  |  |  | 125 (≈ 486 µM) |  |  |  |  |  |  | ≥ 250 |  |  |  | > 300 |  |  |  |  | IC50 [20]: 929 µM
COC(=O)c1nccnc1NC(=O)C1CCCCC1 [Compound 27e] | ≥ 500 | > 500 | > 500 | > 500 | ≥ 500 | > 500 | > 500 | > 500 | > 500 | > 500 | > 500 | 125 (≈ 475 µM) | > 500 | > 500 | > 500 | 106.9 to 108.3 | > 500 | > 500 | > 500 | > 500 | 
COC(=O)c1nccnc1NC(=O)C12CC3CC(CC(C3)C1)C2 [Compound 28e] |  |  |  |  | ≥ 125 |  | > 125 |  |  |  |  |  |  | > 125 |  | 225.6 to 227.2 |  |  |  |  | MIC ([1]; 72 h): ≥ 125 µg/mL; MIC ([2]; 24 h): > 125 µM; MIC ([3]; 24 h): > 125 µM; MIC ([4]; 24 h): > 125 µM; MIC ([6]; 24 h): > 125 µM; MIC ([8]; ATCC204305, 24 h): > 125 µM; MIC ([9]; 24 h): > 125 µM; MIC ([10]; 24 h): > 125 µM; MIC ([11]; 24 h): > 125 µM; MIC ([12]; 48 h): ≥ 125 µg/mL; MIC ([13]; 24 h): > 125 µM; MIC ([15]; CCM8077, 24 h): > 125 µM; MIC ([16]; 24 h): > 125 µM; MIC ([17]; 24 h): > 125 µM; MIC ([18]; CCM8363, 24 h): > 125 µM; MIC ([19]; 24 h): > 125 µM
